This is an account of results in US9598448B2, “Osmium (II) arene imino anti-cancer complexes” (University of Warwick, priority 2010, dated 2017).

Data set [1] has as its system human ovarian A2780 cancer cells. The experiment in a line: SRB growth inhibition assay, A2780. Type of data set: cell-based. The note with it: SRB; 24 h exposure, 72 h recovery; read-out: IC50 values for azopyridine complexes against A2780 ovarian cancer cells. The method, then:
The concentrations of the osmium complexes that inhibit 50% of the proliferation of human ovarian A2780 cancer cells were determined by sulforhodamine B test. A2780 cells were seeded in 96-well plate (Falcon) at 5000 cells/well, after the incubation for 48 h, The complexes were solubilised in DMSO (Sigma) to provide 10 mM stocks. The stocks were serially diluted by cell culture media to give concentrations four-fold than the final concentrations for the assay. The dilutions of complexes in cell culture media were added to the 96-well plate with cells in triplicates to achieve the final concentrations. The final DMSO concentration in each well was no more than 1% (v/v). The complexes were removed after 24 h. The cells were washed with Phosphate Buffered Saline once and cell culture media was added 150 μL/well. The cells were recovered for 72 h. The surviving cells were fixed by adding 150 μL/well of 50% (w/v) trichloroacetic acid and incubated for 1 h at 277 K (277 K). The plates were washed with tap water three times and dried under a flow of warm air, 0.4% sulforhodamine B (Sigma) solution 100 μL/well followed by washing with 1% acetic acid five times and dried under a flow of warm air. The dye was dissolved in 10 mM Tris buffer […] The absorbance of each well was obtained by the Multiskan Ascent plate reader (Labsystems) at 540 nm. The absorbance value of SRB in each well is directly proportional to the cell number. Then the absorbance can be plotted against concentration and the IC50 determined by using Origin software.
The cytotoxicity studies were carried out as described previously above.

Data set [2] can be described thus: Stability and hydrolysis (1H NMR, MS, UV-vis). It counts as physicochemical. To be noted: 310 K, 24 h, 95% deuterated phosphate buffer (10 mM)/5% MeOD-d4.

In general, IC50 refers to the concentration that gives 50% inhibition.

For the substance “[(η^6-p-cym)Os(Azpy-NMe2)I]PF6 [Complex 6]”, the IC50 in data set [1] stood at 200 nM. The “stability and hydrolysis in aqueous solution” value in data set [2] was “remained stable and did not hydrolyze”.
